According to the NIST ThermoML archive (doi:10.1016/j.jct.2009.11.013):
Numbers after ± are expanded uncertainties.

Experiments:
[1] = molar enthalpy of vaporization or sublimation; settings: 298.15 K; Liquid; Calvet microcalorimetry
[2] = Liquid; Calvet microcalorimetry

SMILES	molar enthalpy [1] [kJ/mol]	Normal boiling temperature [2] [°C]
O=C1C=CCS1 [2(5H)-thiophenone]	56 ± 2.4	103 ± 0.2
O=C1C=CCO1 [(5H)-furan-2-one]	55.6 ± 2.6	
